The series is described as follows: Radioactive metabolites in plasma, urine and feces after single oral dose of [14C] compound (I) to humans. It is filed as in vivo, human. The conditions noted are these: for % Distribution of radioactive metabolites in pooled plasma, Human (2 h): oral 100-mg [14C] compound (I), plasma 2 h; for Metabolites in Feces (0-168 hr), Human, % Dose / Metabolites in Feces (0-168 hr), Human, % Rad / Metabolites in Urine (0-168 hr), Human, % Dose / Metabolites in Urine (0-168 hr), Human, % Rad: oral 100-mg; for Metabolites in Feces (0-168 hr), Human, % Dose / Metabolites in Feces (0-168 hr), Human, % Rad: pooled fecal extracts 0-168 hr; for Metabolites in Urine (0-168 hr), Human, % Dose / Metabolites in Urine (0-168 hr), Human, % Rad: pooled urine 0-168 hr. The method, then:
Plasma samples were segregated by collection time and equal volumes of individual plasma samples at a given time point were combined for biotransformation profiling.
The C-14 label was on the carbon-2 of the thiazole ring.
HPLC was performed on an Agilent 1100™ system equipped with binary pumps, autoinjector, and a column heater. A Phenomenex Synergy Polar-RP® column (4.6×250 mm, 5 micron) was used for metabolite separation. All HPLC analyses were performed at 1 mL/min flow rate at 35° C. The HPLC mobile phase consisted of (A) water with 0.1% formic acid and (B) acetonitrile with 0.1% formic acid.
Each fraction of column eluent was evaporated to dryness on a Savant Speed-Vac (Savant Instruments Inc., Holbrook, N.Y.) and counted for radioactivity with a Packard Top Count® microplate scintillation analyzer (Packard Biosciences, Downers Grove, Ill.).
The volumes of pooled plasma processed for HPLC analysis for rat, monkey and human ranged between 1.5 and 8.0 mL. Pooled plasma samples were extracted with methanol/acetonitrile (1:1) at a ratio of 2 volumes solvent to 1 volume of plasma. The mixtures were vortex mixed, sonicated for 5 min, and centrifuged at 3500 rpm for 10 min. The supernatants were transferred into new tubes. The remaining pellets were extracted two more times with 3 mL of methanol/acetonitrile (1:1). The supernatants were combined and evaporated to dryness in a Savant Speed-Vac (Savant Instruments, Inc., Holbrook, N.Y.). The residue was reconstituted into 0.35 to 0.45 mL of 30% acetonitrile in water, vortex mixed and centrifuged at 13000 rpm for 5 min (American Scientific Products Biofuge A centrifuge, Heraeus Sepatech GmbH, Germany). The supernatant was injected onto the HPLC for profiling. Aliquots of the reconstituted samples (30 μl) were also counted on the liquid scintillation counter (LSC) to determine the recovery of radioactivity.
The pooled monkey and human urine samples (3-5 mL) were extracted with 2 volumes of acetonitrile/acetone (1:1). The mixtures were vortex mixed, sonicated and centrifuged at 3500 rpm for 10 min. The supernatants were evaporated to dryness. The residue was suspended in 0.3-0.5 mL of 30% acetonitrile in water and centrifuged at 13000 rpm for 5 min. Aliquots of the supernatants were injected onto the HPLC or analyzed by LSC for radioactivity recovery. Pooled urine samples from BDC monkeys and rats were centrifuged at 13000 rpm for 10 min and injected onto the HPLC for profiling without further treatment.
The amount of fecal homogenate used for analysis was 0.20, 0.19 and 0.51 g for rat, monkey and human, respectively. Each pooled fecal homogenate was extracted by addition of 3 volumes of acetonitrile/methanol (1:1) to 1 volume of fecal homogenate and mixed on a vortex mixer. The mixture was sonicated for 5 min and then centrifuged at 3000 rpm for 10 min. The supernatants were removed and saved. The extraction was repeated two additional times and the supernatants were combined and evaporated to dryness on a Savant Speed-Vac. […] An aliquot of the supernatant was injected onto the HPLC or analyzed by LSC for radioactivity recovery.
The LC/MS system used for analysis of plasma, urine, bile, and fecal samples consisted of an Agilent 1100™ HPLC system connected to a Finnigan LCQ-DecaXP mass spectrometer. Samples were analyzed using positive electrospray ionization. The capillary temperature used for analysis was 320° C., and the nitrogen gas flow rate, spray current, and voltages were adjusted to give maximum sensitivity. The HPLC conditions were described in section 3.3.1.
Counts per min (CPM) were determined on a Packard TopCount NXT microplate scintillation and luminescence counter. For each injection, the average CPM value (2-4 CPM) obtained from fractions between 2-3 min (column void) in the chromatogram was subtracted from the CPM value of each fraction. Biotransformation profiles were prepared by plotting the background subtracted CPM values against time-after-injection.

The values that follow come from patent publication US20060211705A1, “'N-(2-chloro-6-methylphenyl)-2-[[6-[4-(2-hydroxyethyl)-1-piperazinyl]-2-methyl-4-pyrimidinyl]amino]-5-thiazolecarboxamides metabolites” (priority 2005, published 2006).

SMILES strings stand for the structures.

As for `Cc1nc(Nc2ncc(C(=O)Nc3c(C)cccc3Cl)s2)cc(N2CCN(CCO)CC2)n1` [Parent (I), N-(2-Chloro-6-methylphenyl)-2-[[6-[4-(2-hydroxyethyl)-1-piperazinyl]-2-methyl-4-pyrimidinyl]amino]-5-thiazolecarboxamide], the “% Distribution of radioactive metabolites in pooled plasma, Human (2 h)” value (“% Distribution” for short) amounted to 25.5%; the “Metabolites in Feces (0-168 hr), Human, % Dose” value (shortened to “Metabolites in Feces … % Dose”) amounted to 19.1%; the “Metabolites in Feces (0-168 hr), Human, % Rad” value (shortened to “Metabolites in Feces … % Rad”) was determined as 22.4%; the “Metabolites in Urine (0-168 hr), Human, % Dose” value (from here on “Metabolites in Urine … % Dose”) is listed as 0.1%. Moreover, the “Metabolites in Urine (0-168 hr), Human, % Rad” value (“Metabolites in Urine … % Rad” below) amounted to 3.6%.
On to `Cc1nc(Nc2ncc(C(=O)Nc3c(C)cccc3Cl)s2)cc(N2CCNCC2)n1` [M4 (II)], for which the “Metabolites in Feces … % Dose” value is recorded as 2.6%; the “Metabolites in Feces … % Rad” value was determined as 3.1%; the “Metabolites in Urine … % Dose” value is reported as 0.05%; the “Metabolites in Urine … % Rad” value is 1.3%.
In the case of `Cc1nc(Nc2ncc(C(=O)Nc3c(C)cccc3Cl)s2)cc(N2CC[N+]([O-])(CCO)CC2)n1` [M5 (III)], the “% Distribution” value was 4.5%; the “Metabolites in Urine … % Dose” value was found to be 1.4%; the “Metabolites in Urine … % Rad” value stood at 39.8%.
As to `Cc1nc(Nc2ncc(C(=O)Nc3c(C)cccc3Cl)s2)cc(N2CCN(CC(=O)O)CC2)n1` [M6 (IV), 2-(4-(6-(5-((2-Chloro-6-methylphenyl)carbamoyl)thiazol-2-ylamino)-2-methylpyrimidin-4-yl)piperazin-1-yl)acetic acid], the “% Distribution” value stood at 3.6%; the “Metabolites in Feces … % Dose” value was 8.9%; the “Metabolites in Feces … % Rad” value is on record as 10.4%; the “Metabolites in Urine … % Dose” value turned out to be 0.05%. Also, the “Metabolites in Urine … % Rad” value worked out at 1.3%.
In the same order, the values of `Cc1nc(Nc2ncc(C(=O)Nc3c(C)cc(O)cc3Cl)s2)cc(N2CCN(CCO)CC2)n1` [M20 (V)] are 12.5%, 31.2%, 36.6%, 0.2% and 4.1%.
As to `Cc1nc(Nc2ncc(C(=O)Nc3c(Cl)cccc3CO)s2)cc(N2CCN(CCO)CC2)n1` [M24 (VI), N-(2-chloro-6-(hydroxymethyl)phenyl)-2-(6-(4-(2-hydroxyethyl)piperazin-1-yl)-2-methylpyrimidin-4-ylamino)thiazole-5-carboxamide], the “% Distribution” value was found to be 3.1%; the “Metabolites in Feces … % Dose” value is listed as 4.0%; the “Metabolites in Feces … % Rad” value stood at 4.7%; the “Metabolites in Urine … % Dose” value came out at 0.2%. Besides, the “Metabolites in Urine … % Rad” value was 6.0%.
